Measured values taken from publication PMC9611166, “Cocrystal Prediction of Bexarotene by Graph Convolution Network and Bioavailability Improvement” (Pharmaceutics, 2022).
≈ marks a conversion by molar mass, not a printed value.

What was measured:
[1] = Equilibrium solubility in buffer solutions with 0.05% CTAB; assay type: physicochemical; settings: for solubility thermodynamic at 1 day: buffer solution with 0.05% CTAB, aqueous with cosolvent or surfactant or cyclodextrin, thermodynamic from solid, 0.05% CTAB, 37 °C, one day
Description: (§1) The concentration of BEX samples was detected by the Agilent 1260 Series Infinite HPLC. The Eclipse XDB-C18 column (4.6 × 150 mm, 5 μm) was used to separate the analytes. The column temperature was set at 30 °C and the injection volume was 10 μL. The mobile phase was composed of 0.1% trifluoroacetic acid in water and acetonitrile (10:90, v/v) pumped at 1.0 mL/min. The 260 nm was set as the UV-vis detection wavelength.
Excess amounts (10 mg) of BEX and four cocrystals samples were added to the 4 mL of pH 2.0, 4.5, and 6.8 buffer solutions respectively, with the presence of 0.05% CTAB (hexadecyl trimethyl ammonium bromide). Then the saturated solutions were stirred at 300 rpm for one day at 37 °C. The equilibrium solubility of BEX was determined by HPLC after filtering the solutions.

[2] = Powder dissolution at pH 6.8 with 0.05% CTAB; assay type: physicochemical
Description: as §1
The solid samples of BEX and four cocrystals were sieved through 100-mesh sieves. In total, 20 mg of BEX and corresponding cocrystal powders (n = 3) were added to pH 6.8 phosphate buffer with the presence of 0.05% CTAB at 37 °C, rotating at 100 rpm. The samples were collected at 5, 10, 15, 20, 30, 40, 50, and 60 min. The concentration was measured by HPLC.

[3] = parameters: method as in PMID 24333772; settings: cited from earlier work
[4] = Pharmacokinetics in rats; assay type: in vivo; settings: male, Sprague-Dawley, rat, plasma, po, 10 mg/kg BEX, 0.5% CMC-Na suspension, mean ± SD
Description: The PK studies were performed according to the Guide for Care and Use of Laboratory Animals and were approved by the Institutional Animal Care and Use Committee of Shanghai Institute of Materia Medica. There were two groups of male Sprague−Dawley rats and the number of rats is six in each group. […] The dose is 10 mg/kg BEX. The animals had free access to water and fasted overnight before dosing. After the administration, the 600 μL blood sample was collected at 0.5, 1, 2, 3, 4, 6, and 8 h. Plasma was separated by centrifugation (14,000 rpm, 10 min) and stored at −80 °C. In total, 200 μL of rat plasma sample was mixed with 600 μL acetonitrile through a vortex mixer for 20 min and centrifuged for 5 min (14,000 rpm). The BEX concentration was measured by the SCIEX Triple Quad™ 4500 LC-MS instrument. The analytes were separated by the Supelco Ascentis Express C18 column (2.1 × 50 mm, 2.7 μm). The column temperature was set at 35 °C. The mobile phase was composed of 0.2% formic acid in water (solvent A) and acetonitrile (solvent B) pumped at 0.6 mL/min. The gradient elution program started with 55% B and increased linearly to 90% B at 1.5 min and held for 0.5 min. It returned to the 55% B at the 3 min and held for 2 min. The injection volume was 10 μL, and the UV-vis detection wavelength was set at 260 nm. The negative ion detection mode was operated in the mass spectrometer. Multiple reaction monitoring modes (MRM) was used to perform the detection and quantification, with m/z 347.3→303.0 for BEX. The DAS 2.0 program was used to perform the PK analysis.

- solubility thermodynamic at 1 day ([1]; pH 2.0 buffer): < 10 µg/mL
- solubility thermodynamic at 1 day ([1]; pH 4.5 buffer): > 10 µg/mL
- solubility thermodynamic at 1 day ([1]; pH 6.8 buffer): ~30 µg/mL (≈ 86.1 µM)
- pH value of solution after equilibrium solubility experiment ([1]; starting buffer pH 2.00, n = 3): 2.06 ± 0.01
- pH value of solution after equilibrium solubility experiment ([1]; starting buffer pH 4.50, n = 3): 4.58 ± 0.01
- pH value of solution after equilibrium solubility experiment ([1]; starting buffer pH 6.80, n = 3): 6.82 ± 0.02
- pH value of solution after powder dissolution ([2]; pH 6.8, n = 3): 6.81 ± 0.01
- solubility at 60 min ([2]; phosphate buffer with 0.05% CTAB, aqueous with cosolvent or surfactant or cyclodextrin, thermodynamic from solid, pH 6.8 phosphate buffer, 0.05% CTAB, 37 °C, 60 min, read-out: measured solubility in powder dissolution after 60 min): ~30 µg/mL (≈ 86.1 µM)
- AUC(0-inf) [4]: 8790 ± 1080 ng·h/mL
- Cmax [4]: 1680 ± 559 ng/mL
- half-life [4]: 2.98 ± 1.18 h
- AUC(0-t) ([4]; read-out: AUC0−8h): 7220 ± 811 ng·h/mL
Compound: C=C(c1ccc(C(=O)O)cc1)c1cc2c(cc1C)C(C)(C)CCC2(C)C [BEX, Bexarotene]
- absolute bioavailability [3]: less than 20%
